This is an account of results in US11447505B1, “Pyrrolo[2,3-b]pyridine compounds and their use in the treatment of cancer” (priority 2017, dated 2022).

As usually defined, the Ki is a dissociation constant, usually derived from enzyme kinetics or from competition with a known ligand.

One assay has as its target MRCKβ (Homo sapiens (Human), UniProt Q9Y5S2). Briefly: MRCKβ kinase assay (IMAP fluorescence polarization). The class given is biochemical. The following applies: 1 μM ATP; read-out: MRCK-B Average Ki. An excerpt:
MRCKα, MRCKβ, ROCK1 and ROCK2 Kinase Assays
On the technique in general: Polarisation of emitted light reports the rotation of a fluorescent probe.

The target of the next assay is ROCK1 (Homo sapiens (Human), UniProt Q13464). Conditions: read-out: ROCK1 Average Ki; 1 μM ATP.
Chain of ROCK1 (Q13464 2-1354 limits assumed): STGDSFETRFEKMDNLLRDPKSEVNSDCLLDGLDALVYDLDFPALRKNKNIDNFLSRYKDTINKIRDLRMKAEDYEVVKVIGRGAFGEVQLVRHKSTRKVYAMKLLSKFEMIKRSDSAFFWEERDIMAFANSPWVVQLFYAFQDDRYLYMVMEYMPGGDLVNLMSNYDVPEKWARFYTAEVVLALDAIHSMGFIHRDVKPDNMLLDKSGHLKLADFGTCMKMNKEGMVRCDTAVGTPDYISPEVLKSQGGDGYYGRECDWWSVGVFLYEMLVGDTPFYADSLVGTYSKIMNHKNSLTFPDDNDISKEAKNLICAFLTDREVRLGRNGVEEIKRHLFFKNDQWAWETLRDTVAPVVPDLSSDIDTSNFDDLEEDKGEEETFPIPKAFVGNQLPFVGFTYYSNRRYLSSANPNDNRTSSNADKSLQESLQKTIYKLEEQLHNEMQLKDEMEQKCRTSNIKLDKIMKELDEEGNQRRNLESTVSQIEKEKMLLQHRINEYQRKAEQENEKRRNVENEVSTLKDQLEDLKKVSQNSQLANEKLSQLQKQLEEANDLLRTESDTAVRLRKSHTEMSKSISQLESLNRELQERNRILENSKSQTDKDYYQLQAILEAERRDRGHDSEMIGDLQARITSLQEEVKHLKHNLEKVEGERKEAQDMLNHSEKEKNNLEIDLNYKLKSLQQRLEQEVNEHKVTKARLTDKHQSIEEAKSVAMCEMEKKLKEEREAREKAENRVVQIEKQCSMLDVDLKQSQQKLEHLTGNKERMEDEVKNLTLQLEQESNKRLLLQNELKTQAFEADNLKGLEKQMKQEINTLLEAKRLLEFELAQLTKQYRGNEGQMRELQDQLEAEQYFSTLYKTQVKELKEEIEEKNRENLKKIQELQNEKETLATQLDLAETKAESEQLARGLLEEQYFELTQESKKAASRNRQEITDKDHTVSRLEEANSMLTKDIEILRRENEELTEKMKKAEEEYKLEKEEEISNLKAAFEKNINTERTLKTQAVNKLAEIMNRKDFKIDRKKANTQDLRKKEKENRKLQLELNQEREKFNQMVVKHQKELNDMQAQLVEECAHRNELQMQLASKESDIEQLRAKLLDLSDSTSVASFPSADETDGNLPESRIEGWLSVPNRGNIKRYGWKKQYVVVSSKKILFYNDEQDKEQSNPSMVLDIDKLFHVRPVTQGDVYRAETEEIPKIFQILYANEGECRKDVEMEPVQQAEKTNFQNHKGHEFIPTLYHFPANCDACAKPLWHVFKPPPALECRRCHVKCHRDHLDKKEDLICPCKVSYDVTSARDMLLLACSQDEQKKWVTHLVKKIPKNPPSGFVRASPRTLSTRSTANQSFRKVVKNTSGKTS

Protocol for ROCK1: MRCKα, MRCKβ, ROCK1 and ROCK2 assays were performed using an IMAP fluorescence polarization assay format (Molecular Devices Inc.). […] Typically, dose response analyses were performed over concentration ranges from 0.005-100 μM. […] After 30 min incubation to allow binding reagent to bind phosphorylated peptide, fluorescence polarization was measured on a Tecan Saphire^2 plate reader at excitation (470 nm) and emission (530 nm) wavelengths.

Turning to `Cc1cnc(-c2c[nH]c3nccc(N4CCC5(CCN5)C4)c23)s1` (stereo not drawn) [Example E152, 2-[4-(1,7-diazaspiro[3.4]octan-7-yl)-1H-pyrrolo[2,3-b]pyridin-3-yl]-5-methyl-thiazole], the figures for the Ki at MRCKβ and on ROCK1 were 4.65 nM and 100000 nM, respectively.
For the compound `Cc1nccc(-c2c[nH]c3nccc(N4CCCC5(CCCCN5)C4)c23)n1` (stereo not drawn) [Example E160, 8-[3-(2-methylpyrimidin-4-yl)-1H-pyrrolo[2,3-b]pyridin-4-yl]-1,8-diazaspiro[5.5]undecane], the Ki worked out at 2.76 nM at MRCKβ and 100000 nM on ROCK1.
As to `c1cc(-c2c[nH]c3nccc(N4CCCC5(CNC5)C4)c23)cnn1` [Example E156, 4-(2,6-diazaspiro[3.5]nonan-6-yl)-3-pyridazin-4-yl-1H-pyrrolo[2,3-b]pyridine], the figures for the Ki on MRCKβ and on ROCK1 were 1.69 nM and 57.4 nM, respectively.
`Cc1cnc(-c2c[nH]c3nccc(N4CC[C@]5(CCCCN5)C4)c23)s1` [Example E130, 2-[4-[(5R)-2,6-diazaspiro[4.5]decan-2-yl]-1H-pyrrolo[2,3-b]pyridin-3-yl]-5-methyl-thiazole]: the inhibition constant Ki at MRCKβ was determined as 7.23 nM; at ROCK1, 100000 nM.
Consider `c1cc(-c2c[nH]c3nccc(N4CC[C@]5(CCCCN5)C4)c23)ncn1` [Example E127, (5R)-2-(3-pyrimidin-4-yl-1H-pyrrolo[2,3-b]pyridin-4-yl)-2,6-diazaspiro[4.5]decane], for which the results for the inhibitory constant (Ki) on MRCKβ and at ROCK1 were 11.6 nM and 175 nM, respectively.
In the same order, the values of `c1csc(-c2c[nH]c3nccc(N4CCC[C@]5(CCCCN5)C4)c23)n1` [Example E151, 2-[4-[(6R)-1,8-diazaspiro[5.5]undecan-8-yl]-1H-pyrrolo[2,3-b]pyridin-3-yl]thiazole] are 3.21 nM and 114 nM.
Consider `c1cc(-c2c[nH]c3nccc(N4CCCNCC4)c23)cnn1` [Example E43, 4-(1,4-diazepan-1-yl)-3-pyridazin-4-yl-1H-pyrrolo[2,3-b]pyridine], for which the Ki worked out at 2.61 nM on MRCKβ and 59.5 nM on ROCK1.
In the same order, the values of `N#Cc1c[nH]c2nccc(N3CCC4(CCCN4)C3)c12` (stereo not drawn) [Example E185, 4-(1,7-diazaspiro[4.4]nonan-7-yl)-1H-pyrrolo[2,3-b]pyridine-3-carbonitrile] are 1.92 nM and 13.6 nM.
In the same order, the values of `c1cc(-c2c[nH]c3nccc(N4CCC5(CCNC5)C4)c23)cnn1` (stereo not drawn) [Example E164, 4-(2,7-diazaspiro[4.4]nonan-2-yl)-3-pyridazin-4-yl-1H-pyrrolo[2,3-b]pyridine] are 1.12 nM and 0.448 nM.
`CN(C)C(=O)C1(N)CCN(c2ccnc3[nH]cc(-c4cncnc4)c23)CC1` [Example E198, 4-amino-N,N-dimethyl-1-(3-pyrimidin-5-yl-1H-pyrrolo[2,3-b]pyridin-4-yl)piperidine-4-carboxamide]: at MRCKβ, the Ki was determined as 42.9 nM.
For `Cc1cnc(-c2c[nH]c3nccc(N4CCC[C@]5(CCCCN5)C4)c23)s1` [Example E148, 2-[4-[(6R)-1,8-diazaspiro[5.5]undecan-8-yl]-1H-pyrrolo[2,3-b]pyridin-3-yl]-5-methyl-thiazole], the inhibition constant Ki on MRCKβ came out at 4.02 nM; on ROCK1, 100000 nM.
Take `N#Cc1c[nH]c2nccc(N3CCCCC3Cc3ccccc3)c12` (stereo not drawn) [Example E106, 4-(2-benzyl-1-piperidyl)-1H-pyrrolo[2,3-b]pyridine-3-carbonitrile]: the Ki on MRCKβ was determined as 805 nM.
Regarding `Cc1cnc(-c2c[nH]c3nccc(N4CCCC5(CCN5)C4)c23)s1` (stereo not drawn) [Example E153, 2-[4-(1,8-diazaspiro[3.5]nonan-8-yl)-1H-pyrrolo[2,3-b]pyridin-3-yl]-5-methyl-thiazole], the Ki on MRCKβ worked out at 9.36 nM; at ROCK1, 100000 nM.
In the same order, the values of `c1cc(-c2c[nH]c3nccc(N4CCC5(CCCCN5)C4)c23)cnn1` (stereo not drawn) [Example E162, 2-(3-pyridazin-4-yl-1H-pyrrolo[2,3-b]pyridin-4-yl)-2,6-diazaspiro[4.5]decane] are 0.219 nM and 16.9 nM.
As to `N#Cc1c[nH]c2nccc(N3CCC[C@H]3C(=O)N3CCOCC3)c12` [Example E202, 4-[(2S)-2-(morpholine-4-carbonyl)pyrrolidin-1-yl]-1H-pyrrolo[2,3-b]pyridine-3-carbonitrile], the inhibition constant (Ki) at MRCKβ is 992 nM.
Take `Cc1cnc(-c2c[nH]c3nccc(N4CCC5(CCCCN5)C4)c23)s1` (stereo not drawn) [Example E144, 2-[4-(2,6-diazaspiro[4.5]decan-2-yl)-1H-pyrrolo[2,3-b]pyridin-3-yl]-5-methyl-thiazole]: the Ki on MRCKβ was found to be 0.154 nM; at ROCK1, 386 nM.
In the same order, the values of `c1csc(-c2c[nH]c3nccc(N4CCC5(CCCN5)C4)c23)n1` (stereo not drawn) [Example E154, 2-[4-(1,7-diazaspiro[4.4]nonan-7-yl)-1H-pyrrolo[2,3-b]pyridin-3-yl]thiazole] are 0.37 nM and 239 nM.
For the compound `c1ncc(-c2c[nH]c3nccc(N4CC[C@@]5(CCCN5)C4)c23)cn1` [Example E124, 4-[(5S)-1,7-diazaspiro[4.4]nonan-7-yl]-3-pyrimidin-5-yl-1H-pyrrolo[2,3-b]pyridine], the Ki at MRCKβ is 0.947 nM; on ROCK1, 76.9 nM.
Take `NC1CN(c2ccnc3[nH]cc(-c4ccncn4)c23)CCC1F` (stereo not drawn) [Example E42, 4-fluoro-1-(3-pyrimidin-4-yl-1H-pyrrolo[2,3-b]pyridin-4-yl)piperidin-3-amine]: the inhibition constant (Ki) was found to be 0.323 nM at MRCKβ and 79.6 nM at ROCK1.
In the same order, the values of `N#Cc1c[nH]c2nccc(N3CCCC4(CCCCN4)C3)c12` (stereo not drawn) [Example E165, 4-(1,8-diazaspiro[5.5]undecan-8-yl)-1H-pyrrolo[2,3-b]pyridine-3-carbonitrile] are 0.249 nM and 174 nM.
Regarding `Cc1cnc(-c2c[nH]c3nccc(N4CCCC5(CCCCN5)C4)c23)s1` (stereo not drawn) [Example E147, 2-[4-(1,8-diazaspiro[5.5]undecan-8-yl)-1H-pyrrolo[2,3-b]pyridin-3-yl]-5-methyl-thiazole], the inhibition constant (Ki) on MRCKβ was 0.0924 nM; at ROCK1, 100000 nM.
Consider `c1ccc(-c2c[nH]c3nccc(N4CCC5(CCCCN5)C4)c23)nc1` (stereo not drawn) [Example E141, 2-[3-(2-pyridyl)-1H-pyrrolo[2,3-b]pyridin-4-yl]-2,6-diazaspiro[4.5]decane], for which the Ki was 0.549 nM at MRCKβ and 109 nM on ROCK1.
`c1cc(-c2c[nH]c3nccc(N4CCC[C@]5(CCCCN5)C4)c23)cnn1` [Example E173, (6R)-8-(3-pyridazin-4-yl-1H-pyrrolo[2,3-b]pyridin-4-yl)-1,8-diazaspiro[5.5]undecane]: the inhibition constant (Ki) on MRCKβ turned out to be 1.18 nM; at ROCK1, 294 nM.
For the compound `c1ncc(-c2c[nH]c3nccc(N4CC[C@]5(CCCN5)C4)c23)cn1` [Example E123, 4-[(5R)-1,7-diazaspiro[4.4]nonan-7-yl]-3-pyrimidin-5-yl-1H-pyrrolo[2,3-b]pyridine], the Ki came out at 9.88 nM on MRCKβ and 100000 nM on ROCK1.
With `c1ncc(-c2c[nH]c3nccc(N4CCCNCC4)c23)cn1` [Example E44, 4-(1,4-diazepan-1-yl)-3-pyrimidin-5-yl-1H-pyrrolo[2,3-b]pyridine], the Ki at MRCKβ was found to be 4.5 nM; at ROCK1, 461 nM.
For `c1ccc(-c2c[nH]c3nccc(N4CCC[C@]5(CCCCN5)C4)c23)nc1` [Example E140, (6R)-8-[3-(2-pyridyl)-1H-pyrrolo[2,3-b]pyridin-4-yl]-1,8-diazaspiro[5.5]undecane], the figures for the Ki on MRCKβ and on ROCK1 were 7.33 nM and 97.7 nM, respectively.
In the same order, the values of `c1cc(-c2c[nH]c3nccc(N4CCC5(CCCN5)C4)c23)cnn1` (stereo not drawn) [Example E161, 4-(1,7-diazaspiro[4.4]nonan-7-yl)-3-pyridazin-4-yl-1H-pyrrolo[2,3-b]pyridine] are 0.933 nM and 34.1 nM.
In the same order, the values of `Cc1ncc(-c2c[nH]c3nccc(N4CCCC5(CCCCN5)C4)c23)cn1` (stereo not drawn) [Example E166, 8-[3-(2-methylpyrimidin-5-yl)-1H-pyrrolo[2,3-b]pyridin-4-yl]-1,8-diazaspiro[5.5]undecane] are 0.786 nM and 100000 nM.
In the same order, the values of `Cc1cnc(-c2c[nH]c3nccc(N4CCCC5(CCCN5)C4)c23)s1` (stereo not drawn) [Example E143, 2-[4-(1,9-diazaspiro[4.5]decan-9-yl)-1H-pyrrolo[2,3-b]pyridin-3-yl]-5-methyl-thiazole] are 0.882 nM and 100000 nM.
Turning to `Cc1csc(-c2c[nH]c3nccc(N4CCCC5(CCCCN5)C4)c23)n1` (stereo not drawn) [Example E158, 2-[4-(1,8-diazaspiro[5.5]undecan-8-yl)-1H-pyrrolo[2,3-b]pyridin-3-yl]-4-methyl-thiazole], the inhibition constant Ki was 0.36 nM at MRCKβ and 100000 nM at ROCK1.
Turning to `c1ncc(-c2c[nH]c3nccc(N4CC[C@]5(CCCCN5)C4)c23)cn1` [Example E125, (5R)-2-(3-pyrimidin-5-yl-1H-pyrrolo[2,3-b]pyridin-4-yl)-2,6-diazaspiro[4.5]decane], the Ki at MRCKβ was 31.3 nM; on ROCK1, 424 nM.
In the case of “N-[(3S)-1-(3-pyridazin-4-yl-1H-pyrrolo[2,3-b]pyridin-4-yl)-3-piperidyl]acetamide [Example E205]”, the results for the Ki at MRCKβ and on ROCK1 were 4.43 nM and 113 nM, respectively.
In the same order, the values of `c1csc(-c2c[nH]c3nccc(N4CC[C@]5(CCCN5)C4)c23)n1` [Example E135, 2-[4-[(5R)-1,7-diazaspiro[4.4]nonan-7-yl]-1H-pyrrolo[2,3-b]pyridin-3-yl]thiazole] are 10.3 nM and 100000 nM.
In the same order, the values of `Cc1noc(C)c1-c1c[nH]c2nccc(N3CCCC4(CCCCN4)C3)c12` (stereo not drawn) [Example E167, 4-[4-(1,8-diazaspiro[5.5]undecan-8-yl)-1H-pyrrolo[2,3-b]pyridin-3-yl]-3,5-dimethyl-isoxazole] are 108 nM and 100000 nM.
For the compound `N#Cc1c[nH]c2nccc(N3CCC[C@H]3C(=O)N3CCCCC3)c12` [Example E203, 4-[(2S)-2-(piperidine-1-carbonyl)pyrrolidin-1-yl]-1H-pyrrolo[2,3-b]pyridine-3-carbonitrile], the Ki at MRCKβ stood at 804 nM.
